Experiments:
[1] = tested on: SJ-G2 (glioblastoma) cancer cells; assay: MTT growth inhibition assay, SJ-G2; assay type: cell-based; conditions: for GI50: MTT, 72 h, ± standard error, read-out: Growth Inhibition Concentration, GI50
Procedure: (§1) The Schiff bases and their organotin(IV) compounds were screened for in vitro cytotoxicity against a panel of 12 cancer cell lines: EJ-28 (muscle invasive bladder), RT-112 (minimum-invasive bladder), HT29 (colon), U87 and SJ-G2 (glioblastoma), MCF-7 (breast), A2780 (ovarian), H460 (lung), A431 (skin), DU145 (prostate), BE2-C (neuroblastoma), MIA (pancreatic) and one normal breast cell line (MCF-10A) using the MTT metabolic assay (Figure 6). After 72 h of incubation, a dose-dependent […] effect towards the cancer cell lines was measured at very low micromolar (µM) concentrations of the compounds. The growth inhibition concentration of the Schiff bases and their organotin(IV) compounds required to inhibit 50% cell proliferation relative to the cells that were treated with DMSO (control) are given in Table 2. The stability of these compounds was assessed in DMSO as well as in a mixture of DMSO-H2O. The absorbance obtained from UV-vis spectroscopy analysis was monitored for 72 h, and an unchanged pattern in the spectra was indicative that the compounds were stable in both the solvent systems tested.
(§2) For HT29 (colon), U87 and SJ-G2 (glioblastoma), MCF-7 (breast), A2780 (ovarian), H460 (lung), A431 (skin), Du145 (prostate), BE2-C (neuroblastoma), MIA (pancreas) cell lines and one normal breast cell line, MCF-10A (normal breast), the MTT assays were performed using the following method:
(§3) Stock solutions were prepared as follows and stored at −20 °C: Trial compounds were stored as 10 mM solutions in DMSO. All cell lines were cultured in a humidified atmosphere 5% CO2 at 37 °C. The cancer cell lines were maintained in Dulbecco’s modified Eagle’s medium (DMEM) (Trace Biosciences) supplemented with 10% foetal bovine serum, 10 mM sodium bicarbonate, penicillin (100 IU/mL), streptomycin (100 μg/mL) and glutamine (4 mM). The normal cell line, MCF-10A was cultured in DMEM:F12 (1:1) cell culture media, 5% heat inactivated horse serum, supplemented with penicillin (50 IU/mL), streptomycin (50 μg/mL), 20mM Hepes, L-glutamine (2 mM), epidermal growth factor (20 ng/mL), hydrocortisone (500 ng/mL), cholera toxin (100 ng/mL) and insulin (10 μg/mL).
(§4) Cells in logarithmic growth were transferred to 96-well plates. Cytotoxicity was determined by plating cells in duplicate in 100 μL medium at a density of 2500–4000 cells/well. On day 0 (24 h after plating), when the cells were in logarithmic growth, 100 μL medium, with or without the test agent, was added to each well. After 72 h drug exposure, growth inhibitory effects were evaluated using the MTT (3-[4,5-dimethylthiazol-2-yl]-2,5-diphenyltetrazolium bromide) assay and absorbance read at 540 nm. Percentage growth inhibition was determined at a fixed drug concentration of 25 μM. A value of 100% was indicative of complete cell growth inhibition. Those analogues showing appreciable percentage growth inhibition underwent further dose-response analysis allowing for the calculation of a GI50 value. This value is the drug concentration at which cell growth is 50% inhibited based on the difference between the optical density values on day 0 and those at the end of drug exposure.

[2] = tested on: RT-112 cells; assay: Intracellular ROS measurement (DCFH-DA); assay type: cell-based, human; conditions: 24 h, DMSO as control
Text: Two compounds with the most promising bioactivity, Ph2Sn(S2MoVa) and Ph2Sn(S4MoVa), were selected for further cell apoptosis studies, in order to evaluate the primary damage to biological macromolecules through redox reactions, particularly via formation of ROS [68]. ROS are highly reactive molecules/radicals (O2, O2^•, H2O2, HO^•) that are continuously generated during aerobic metabolism, but when in excessive amounts, can lead to protein and DNA oxidation, protein cross-linking and cell death. Estimation of the levels of ROS in cell culture is an important step towards better understanding the mechanisms that lead to cell death or disease processes. […] ROS production was measured using the ROS-detecting fluorescent dye DCFH-DA and DMSO was used as a control. Both compounds were able to induce ROS production in RT-112 cell lines after 24 h.
Intracellular ROS measurements were used to assess antioxidant or ROS activity. Measurements were performed using a fluorescence plate reader following to the procedure outlines in the ROS detection kit (OxiSelect™). […] The cells were then read on a standard Infinite M200 fluorescence microplate reader (Tecan, Männedorf, Switzerland). The ROS or antioxidant content in unknown samples was determined by comparison with the predetermined DCF standard curve.

[3] = tested on: EJ-28 (muscle invasive bladder) cancer cells; assay: MTT cytotoxicity assay, EJ-28; assay type: cell-based, human; conditions: EJ-28 cells, 72 h, ± standard error, read-out: Growth Inhibition Concentration, GI50
Procedure: as §1
The inhibitory effect of the synthesised compounds on the growth of bladder (EJ-28 and RT-112) cancer cells was evaluated by MTT assay. […] RT-112 and EJ-28, human bladder cancer cell lines used in this study (ATCC, Manassas, VA, USA) were cultured in RPMI-1640 (High glucose) medium supplemented with 10% fetal bovine serum containing 1% penicillin. The cells were cultured at 37 °C in a humidified atmosphere of 5% CO2 in air. Cells were seeded in 96-well plates at 6000 cells per well for 24 h, then they were treated with different concentrations of compounds for 72 h. The medium was subsequently removed and the wells were washed with 200 µL of phosphate buffer saline. Aliquots of 20 µL of 3-(4,5-dimethylthiazol-2-yl)-2,5-diphenyltetrazolium bromide (MTT) was added to each well and incubated for 4 h at 37 °C. Aliquots of 200 µL of media was then removed from each well and 200 µL of DMSO was added. Optical density (OD) was measured using an ELISA plate reader at 570 nm. Control wells (100% viability), containing media and DMSO, were included in all the experiments. All data points represented an average of triplicate assays. Cytotoxicity was expressed as CD50, i.e., the concentration that reduced the absorbance of treated cells by 50% with reference to the control (untreated cells).

[4] = tested on: A2780 (ovarian) cancer cells; assay: MTT growth inhibition assay, A2780; assay type: cell-based; conditions: 72 h, ± standard error, read-out: Growth Inhibition Concentration, GI50
Procedure: as §1, §2, §3, §4

[5] = tested on: H460 (lung) cancer cells; assay: MTT growth inhibition assay, H460; assay type: cell-based; conditions: 72 h, ± standard error, read-out: Growth Inhibition Concentration, GI50
Procedure: as §1, §2, §3, §4

In the case of “Diphenyltin(IV) [Ph2Sn(S2MoVa), Diphenyltin(IV) [S-2-Methybenzyl-β-N-(2-hydroxy-3-methoxybenzylmethylene) dithiocarbazate]]”, the “greater activity than respective Schiff base” value ([1]; GI50 comparison) is reported as 3 fold, the GI50 [1] is reported as 840 ± 90 nM and the ROS generation [2] is reported as “stimulated ROS generation”. It also gave a GI50 [3] of 350 ± 50 nM, a GI50 [4] of 230 ± 10 nM and a GI50 [5] of 2800 nM.

“Diphenyltin(IV) [Ph2Sn(S4MoVa), Diphenyltin(IV) [S-4-Methybenzyl-β-N-(2-hydroxy-3-methoxybenzylmethylene) dithiocarbazate]]” was tested, and the GI50 [1] was 1000 ± 160 nM, the ROS generation [2] was “stimulated ROS generation” and the GI50 [3] was 3100 ± 370 nM. For the same substance, the GI50 [4] was 350 ± 70 nM and the GI50 [5] was 1900 ± 230 nM.

From PMC6413231, “o-Vanillin Derived Schiff Bases and Their Organotin(IV) Compounds: Synthesis, Structural Characterisation, In-Silico Studies and Cytotoxicity” (International Journal of Molecular Sciences, 2019)
